Columns and labels:
[1] = molecular target: HLA-DRB1*0401 (DR4w4) (Homo sapiens, UniProt P01903+P01911, A100K/A169T/F76Y/I96L/K127E/L162R/M171V/N62H/P40V/Q125Y/R42H/S133A/S149N/S66Y/V115G/V209L/W38E); test: Purified HLA class II peptide binding assay, DRB1*0401
[2] = molecular target: HLA-A*0301 (Homo sapiens, UniProt P04439); test: Purified HLA class I peptide binding assay, A*0301; settings: binding affinity, HLA-A3 supermotif-bearing peptides
[3] = molecular target: HLA-A*1101 (Homo sapiens, UniProt P04439, A114D/D185E/E176A/F33Y/L180Q/S129P/T187R); test: Purified HLA class I peptide binding assay, A*1101; settings: binding affinity, HLA-A3 supermotif-bearing peptides
HLA-A*1101, sequence (P04439 25-365 limits assumed, stated change not applied): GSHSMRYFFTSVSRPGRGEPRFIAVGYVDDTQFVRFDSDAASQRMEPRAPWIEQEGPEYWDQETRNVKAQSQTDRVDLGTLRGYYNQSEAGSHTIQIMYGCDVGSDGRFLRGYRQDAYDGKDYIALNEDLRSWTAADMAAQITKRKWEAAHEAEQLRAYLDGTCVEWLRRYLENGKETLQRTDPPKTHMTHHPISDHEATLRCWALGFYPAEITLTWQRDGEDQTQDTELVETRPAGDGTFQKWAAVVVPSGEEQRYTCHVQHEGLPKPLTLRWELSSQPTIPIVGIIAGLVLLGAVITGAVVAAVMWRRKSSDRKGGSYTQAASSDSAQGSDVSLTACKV

[4] = molecular target: HLA-A*3101 (Homo sapiens, UniProt P04439, A270S/D185E/E176V/E277Q/F33T/G231S/G80R/H175R/I121M/I218V/I322F/K168Q/L300P/L318F/M331R/P217A/Q94H/R138Q/T323A/T345S/T97I/V358M); test: Purified HLA class I peptide binding assay, A*3101; settings: binding affinity, HLA-A3 supermotif-bearing peptides
[5] = molecular target: HLA-A*3301 (Homo sapiens, UniProt P04439, A270S/D185E/E176V/E277Q/E87N/F33T/G231S/H175R/I121M/I218V/I322F/K168Q/K210R/L300P/L318F/M331R/P217A/Q86R/Q94H/R138Q/T323A/T345S/T97I/V358M/Y195H); test: Purified HLA class I peptide binding assay, A*3301; settings: binding affinity, HLA-A3 supermotif-bearing peptides
[6] = molecular target: HLA-A*6801 (Homo sapiens, UniProt P04439, A269V/D185E/E176V/E277Q/E87N/F33Y/G231S/I121M/I166T/I218V/L180W/L300P/L318F/N151K/P208A/P217A/Q86R/R169H/T345S); test: Purified HLA class I peptide binding assay, A*6801; settings: binding affinity, HLA-A3 supermotif-bearing peptides

## CC[C@H](C)[C@H](NC(=O)[C@H](C)NC(=O)[C@@H](NC(=O)[C@@H](NC(=O)[C@H](C)NC(=O)[C@H](CC(C)C)NC(=O)[C@@H](NC(=O)[C@@H](NC(=O)[C@@H](NC(=O)[C@H](CC(C)C)NC(=O)[C@@H](N)CC(C)C)[C@@H](C)CC)[C@@H](C)CC)C(C)C)[C@@H](C)CC)[C@@H](C)CC)C(=O)N[C@@H](CCC(=O)O)C(=O)NCC(=O)N[C@@H](CC(=O)O)C(=O)N[C@@H](CS)C(=O)O
[1]
  IC50: 3.75 µM

## CC[C@H](C)[C@H](NC(=O)[C@H](CC(C)C)NC(=O)[C@H](C)N)C(=O)N[C@@H](CCC(=O)O)C(=O)N[C@H](C(=O)N[C@@H](CO)C(=O)N[C@@H](Cc1ccc(O)cc1)C(=O)N[C@H](C(=O)N[C@@H](CCCCN)C(=O)O)C(C)C)[C@@H](C)O
[2]
  IC50: 136 nM
[3]
  IC50: 32 nM
[4]
  IC50: 900 nM
[5]
  IC50: > 10 µM
[6]
  IC50: 286 nM

— US20040053822A1, “Inducing cellular immune responses to mage2/3 using peptide and nucleic acid compositions” (priority 2002, published 2004)
